Measured values as given in patent US12685732B2, “Composition for improving, preventing or treating muscular disorders including sulfonamide-based compounds” (The Industry & Academic Cooperation in Chungnam National …, priority 2022, dated 2026).

Tests used:
[1] = system: CTX-induced sarcopenia mouse model; experiment: Grip strength recovery in CTX-induced sarcopenia mouse model; assay type: in vivo; conditions: oral 50, 100, 500 mg/kg once/day 10 days, days 4, 9, 14
Description: (§1) Specifically, the grip strength was measured before CTX injection, and after CTX was injected (day 0), the drug was orally administered once/day for 10 days, and on days 4, 9, and 14, the grip strength was measured, respectively.

[2] = system: CTX-induced sarcopenia mouse model; experiment: Muscle regeneration by H&E staining in CTX-induced sarcopenia mouse model; assay type: in vivo; conditions: 4 μM oral, 24 h after CTX; tissue on days 3, 6, 10; vs non-administered control
Description: (§2) In order to construct a CTX-induced sarcopenia mouse model, cardiotoxin (LATOXAN, Portes-les-Valence, France) was dissolved at 1 mg/ml in PBS to make a high-concentration stock solution. To apply to the mice, the stock solution was diluted again in PBS at a final concentration of 0.03 mg/ml and used, and intramuscularly injected into both thigh muscles of the mouse using a 1 ml syringe (24 G) to construct a sarcopenia mouse model.
Specifically, for mouse muscle tissue immunostaining, the muscle tissues of a comparative group and a sulfamethazine-treated group were fixed in 4% paraformaldehyde, washed, and fixed in paraffin. Tissues were cut to a thickness of about […], fixed to a slide, and then stained using an antibody for each muscle type.

[3] = system: CTX-induced sarcopenia mouse model; experiment: Muscle recovery by muscle type (myosin I, IIa, IIb antibody staining) in CTX-induced sarcopenia mouse model; assay type: in vivo; conditions: 4 μM oral
Description: as §2

C57BL/6J mice [4] = experiment: Single oral dose toxicity: tissue weights at autopsy; assay type: in vivo, mouse; conditions: single oral 100, 500, 1000 mg/kg; male and female; day 14
Description: The body weights were measured before administration, and on 1 day, 3 days, 7 days, and 14 days after administration, and an autopsy was performed on day 14.
In the present disclosure, a single oral dose toxicity test refers to a test that qualitatively and quantitatively examines toxicity in a short period of time when a test substance was administered to test animals in a single dose (including divided doses within 24 hours).

[5] = system: CTX-induced sarcopenia mouse model; experiment: Rota Rod balance ability in CTX-induced sarcopenia mouse model; assay type: in vivo; conditions: oral 50, 100, 500 mg/kg once/day 10 days; days 4, 9, 14; vs (+)PBS group
Description: (§3) Specifically, the Rota Rod was measured before CTX injection, and after CTX was injected (day 0), the drug was orally administered once/day for 10 days, and on days 4, 9, and 14, the Rota Rod was measured, respectively.

[6] = system: C2C12-PHF20/YY1-promoter-GFP cell line; experiment: HTS system: GFP (green luminescence) in PHF20-overexpressing myoblasts carrying YY1 promoter-GFP; assay type: cell-based, mouse; conditions: 1 nM, 10 nM, 100 nM, 1 μM or 10 μM
Excerpt: C2C12 myoblasts, which were stable cells in which PHF20 was overexpressed, were transformed with a plasmid coexisting with a YY1 promoter and GFP, which inhibited muscle differentiation, to prepare a stable cell line. The degree of GFP signal suppression was quantified and measured, and the degree of muscle differentiation was used as a quantitative measurement index (FIG. 1).
Specifically, the C2C12-PHF20/YY1-promoter-GFP cell line according to Example 1 was dispensed in a 96-well plate at 0.5×10^5, cultured for 24 hours, and cells in a 70% confluent state were treated with 250 ng/ml of doxycycline for 24 hours, and then treated with each compound at a final concentration of 10 μM.
For fluorescence intensity, C2C12-PHF20/YY1-promoter-GFP cells were dispensed at 4×10^5 in a 6-well culture plate and cultured for 24 hours. […] Thereafter, the degree of green luminescence was confirmed using GloMax microplate readers explorer (Promega, Madison, Wisconsin, USA).

C57BL/6J mice [7] = experiment: Single oral dose toxicity: liver pathology by H&E staining; assay type: in vivo, mouse; conditions: single oral 100, 500, 1000 mg/kg; male and female; day 14
Description: As in Example 7-1, mice with single oral administration were dissected on day 14 after administration, and histochemical toxicity was evaluated. The pathology of the liver was observed through H&E staining on the dissected liver tissue.

[8] = Body weight in CTX-induced sarcopenia mouse model; assay type: in vivo; conditions: oral 50, 100, 500 mg/kg once/day 10 days, 14 days, except decrease in all groups on day 10 without diet supply
Description: as §3
For a total of 14 days, the body weights of the mice were measured, and any change in body weight was confirmed.
as §1

C57BL/6J mice [9] = experiment: Single oral dose toxicity: blood liver, heart and kidney toxicity markers; conditions: single oral 100, 500, 1000 mg/kg; male and female; serum day 14
Description: 7-week-old male and female C57BL/6J mice with the body weight of 20±3 g were obtained from DooYeol Biotech (Seoul, South Korea). The mice were bred under constant room temperature and 12 h night/day cycle for 1 week before the experiment, and the mice were fed with a standard rodent diet and were freely taken with water.
The collected blood was left at room temperature for 1 hour to be coagulated, and the serum was isolated by operating a centrifuge (13,000 rpm) for 20 minutes. Blood analysis was performed by dividing liver toxicity, heart toxicity, and kidney toxicity, and the analysis was conducted by requesting DooYeol Biotech (Seoul, Korea).

With sulfamethazine the “grip strength, all four paws” value [1] was “grip strength was increased in a sulfamethazine concentration-dependent manner”, the “grip strength, hind legs (2 paws)” value ([1]; vs (+)PBS group) was “grip strength of mice increased as the dose of sulfamethazine increased” and the “degree of muscle differentiation / regeneration by H&E staining” value [2] was “the muscle was regenerated compared to the control group”. For the same substance, the “expression of myosin I” value ([3]; day 6) was “expression of blue-stained myosin I was increased”, the “muscle image by myosin type staining” value ([3]; day 10) was “recovered similarly to that of a normal control group on day 0” and the “expression of myosin IIa and myosin IIb” value ([3]; vs control group) was “increase in expressions of green myosin IIa and red myosin IIb”. The tissue weight (C57BL/6J mice [4]) was “no singularity in tissue weight”, the “balance ability of the Rota Rod” value [5] was “the higher the dose of sulfamethazine, the higher the balance ability of the Rota Rod” and the “intensity of green fluorescence by concentration” value [6] was “the higher the treated concentration of sulfamethazine, the weaker the intensity of fluorescence”. For the same substance, the “liver pathology (H&E)” value (C57BL/6J mice [7]) was “no specific pathological findings were observed”, the body weight ([8]; Rota Rod study) was “no change in body weight was observed” and the body weight ([8]; grip strength study) was “no change in body weight was observed”. For the same substance, the “blood liver toxicity, heart toxicity and kidney toxicity markers” value (C57BL/6J mice [9]) was “no specific phenomena related to liver toxicity, heart toxicity, and kidney toxicity”.
